Source: publication PMC5318888, “SAMHD1 enhances nucleoside-analogue efficacy against HIV-1 in myeloid cells” (Scientific Reports, 2017)

Tests used:
HIV-1-GFP [1] = test: microbe, parasite or virus in culture; assay type: cell-based
Procedure: H9 and Jurkat cells (6 × 10^5 cells/mL) were treated with increasing concentrations of nucleoside analogues (0–200 μM; except CFB, 0–1.6 μM) and incubated for 4 h at 37 °C in 5% CO2. Cells were then infected with HIV-1-GFP by spinoculation at 800 × g for 90 min in the presence of 1 μg/mL polybrene, and further incubated at 37 °C in 5% CO2 for 72 h. Undifferentiated U937 and THP-1 (PMA^−) cells (6 × 10^5 cells/mL) were treated with increasing concentrations of nucleoside analogues (0–200 μM; except CFB, 0–1.6 μM) and incubated at 37 °C in 5% CO2 for 48 h. Cells were then infected with HIV-1-GFP by spinoculation at 800 × g for 90 min in the presence of 1 μg/mL polybrene, and further incubated at 37 °C in 5% CO2 for 72 h. Non-dividing U937 and THP-1 (PMA^+) cells (6 × 10^5 cells/mL) were differentiated by addition of 100 nM PMA (PMA^+) for 48 h and treated with increasing concentrations of nucleoside analogues as described above. Cells were then infected with HIV-1-GFP in the presence of 1 μg/mL polybrene and further incubated at 37 °C in 5% CO2 for 72 h. The percentage of GFP^+cells was determined by one-colour flow cytometry using a Fortessa X20 analyser (BD Biosciences) and the data analysed using the FlowJo software suite.
(§1) Non-ambiguous values were subjected to a replicate test to calculate confidence intervals of 95% (95% CI). CC50 and EC50 values were determined for at least two independent experiments for each nucleoside analogue and a selectivity index (SI) also calculated, (SI = CC50/EC50). EC50 values for each replicate were used to perform an unpaired two-tailed t-test to determine significant differences between U937 cells expressing SAMHD1 wt or HD206-7AA mutant and THP-1 cells expressing Vpx or untransduced cells. P values of <0.005 were considered statistically significant.

HIV-1-GFP [2] = test: Anti-HIV-1 activity in U937 cells transduced with wt SAMHD1 or HD206-7AA mutant; assay type: cell-based
Procedure: (§2) Antiviral assays were further performed in monocytoid cells transduced with YFP-expressing VLPs containing WT SAMHD1, HD206-7AA or Vpx. Briefly, U937 cells (6 × 10^5 cells/mL) were transduced with WT SAMHD1-YFP or HD206-7AA-YFP VLPs by spinoculation at 800 × g for 90 min in the presence of 1 μg/mL polybrene. Similarly, THP-1 cells (6 × 10^5 cells/mL) were transduced with Vpx-YFP VLPs by spinoculation at 800 × g for 90 min in the presence of 1 μg/mL polybrene. Cells were incubated at 37 °C in 5% CO2 and after 72 h, PMA^+ cells (6 × 10^5 cells/mL) were treated with 100 nM PMA and PMA^− cells (7.5 × 10^4 cells/mL) were left untreated. Cells were then incubated at 37 °C in 5% CO2 for 48 h. Nucleoside analogues were added at increasing concentrations (0–200 μM; except CFB, 0–1.6 μM) and cells were further incubated for 48 h. PMA^− cells were then infected with HIV-1-GFP by spinoculation at 800 × g for 90 min in the presence of 1 μg/mL polybrene, PMA^+ cells were infected with HIV-1-GFP in the presence of 1 μg/mL polybrene only. Cells were incubated for 72 h at 37 °C in 5% CO2 and then analysed by two-colour flow cytometry using a Fortessa X20 analyser (BD Biosciences). Data were analysed using the FlowJo software suite.
as §1, with “The cytotoxic concentration of nucleoside analogue that inhibits cell viability by 50% (CC50) and the effective concentration of nucleoside analogue that inhibits infection of cells by 50% (EC50) were calculated for each independent experiment by non-linear regression using GraphPad Prism v6.00 for Windows (GraphPad Software, San Diego, CA). Non-ambiguous” for “Non-ambiguous”

HIV-1-GFP [3] = test: Anti-HIV-1 activity in THP-1 cells with or without Vpx transduction; assay type: cell-based
Procedure: as §2
as §1, with “The cytotoxic concentration of nucleoside analogue that inhibits cell viability by 50% (CC50) and the effective concentration of nucleoside analogue that inhibits infection of cells by 50% (EC50) were calculated for each independent experiment by non-linear regression using GraphPad Prism v6.00 for Windows (GraphPad Software, San Diego, CA). Non-ambiguous” for “Non-ambiguous”

[4] = Cytotoxicity, live cells by flow cytometry, H9 cells; assay type: cell-based; conditions: human
Procedure: (§3) H9, Jurkat and undifferentiated U937 and THP-1 (PMA^−) cells (6 × 10^5 cells/mL) were treated with increasing concentrations of nucleoside analogues (0–200 μM; except CFB, 0–1.6 μM) and incubated at 37 °C in 5% CO2 for 48 h. Medium was then replaced and cells were further incubated for 72 h. Non-dividing U937 and THP-1 (PMA^+) cells (6 × 10^5 cells/mL) were differentiated by addition of 100 nM phorbol-12-myristate-13-acetate (PMA^+) for 48 h and then treated with increasing concentrations of nucleoside analogues as described above. The percentage of live cells was determined by flow cytometry using Live/Dead fixable blue-fluorescent dyes (Invitrogen) and a Fortessa X20 analyser (BD Biosciences). Data were analysed using the FlowJo software suite.
as §1, with “The cytotoxic concentration of nucleoside analogue that inhibits cell viability by 50% (CC50) and the effective concentration of nucleoside analogue that inhibits infection of cells by 50% (EC50) were calculated for each independent experiment by non-linear regression using GraphPad Prism v6.00 for Windows (GraphPad Software, San Diego, CA). Non-ambiguous” for “Non-ambiguous”

[5] = Cytotoxicity, live cells by flow cytometry, Jurkat cells; assay type: cell-based; conditions: human
Procedure: as §3
as §1, with “The cytotoxic concentration of nucleoside analogue that inhibits cell viability by 50% (CC50) and the effective concentration of nucleoside analogue that inhibits infection of cells by 50% (EC50) were calculated for each independent experiment by non-linear regression using GraphPad Prism v6.00 for Windows (GraphPad Software, San Diego, CA). Non-ambiguous” for “Non-ambiguous”

[6] = Cytotoxicity, live cells by flow cytometry, U937 cells (PMA−/PMA+); assay type: cell-based; conditions: human
Procedure: as §3
as §1, with “The cytotoxic concentration of nucleoside analogue that inhibits cell viability by 50% (CC50) and the effective concentration of nucleoside analogue that inhibits infection of cells by 50% (EC50) were calculated for each independent experiment by non-linear regression using GraphPad Prism v6.00 for Windows (GraphPad Software, San Diego, CA). Non-ambiguous” for “Non-ambiguous”

U937 cells = test: as above; assay type: cell-based; conditions: human, 48 h
Procedure: as §3
as §1, with “The cytotoxic concentration of nucleoside analogue that inhibits cell viability by 50% (CC50) and the effective concentration of nucleoside analogue that inhibits infection of cells by 50% (EC50) were calculated for each independent experiment by non-linear regression using GraphPad Prism v6.00 for Windows (GraphPad Software, San Diego, CA). Non-ambiguous” for “Non-ambiguous”

[7] = Cytotoxicity, live cells by flow cytometry, THP-1 cells (PMA−/PMA+); assay type: cell-based; conditions: human
Procedure: as §3
as §1, with “The cytotoxic concentration of nucleoside analogue that inhibits cell viability by 50% (CC50) and the effective concentration of nucleoside analogue that inhibits infection of cells by 50% (EC50) were calculated for each independent experiment by non-linear regression using GraphPad Prism v6.00 for Windows (GraphPad Software, San Diego, CA). Non-ambiguous” for “Non-ambiguous”

THP-1 cells = test: as above; assay type: cell-based; conditions: human, 48 h
Procedure: as §3
as §1, with “The cytotoxic concentration of nucleoside analogue that inhibits cell viability by 50% (CC50) and the effective concentration of nucleoside analogue that inhibits infection of cells by 50% (EC50) were calculated for each independent experiment by non-linear regression using GraphPad Prism v6.00 for Windows (GraphPad Software, San Diego, CA). Non-ambiguous” for “Non-ambiguous”

in vitro = assay type: cell-based; conditions: human
Procedure: as §3
as §1, with “The cytotoxic concentration of nucleoside analogue that inhibits cell viability by 50% (CC50) and the effective concentration of nucleoside analogue that inhibits infection of cells by 50% (EC50) were calculated for each independent experiment by non-linear regression using GraphPad Prism v6.00 for Windows (GraphPad Software, San Diego, CA). Non-ambiguous” for “Non-ambiguous”

SAMHD1 = biological target: T1, SAMHD1 (Homo sapiens, UniProt Q9Y3Z3); design: method as in PMID 25331707; conditions: previous in vitro assays; cited from earlier work
T1 construct: The final concentrations were 100 nM SAMHD1(115–626), 10 nM Ppx1; strep-tag; made in house
T1 sequence (Q9Y3Z3 115-626): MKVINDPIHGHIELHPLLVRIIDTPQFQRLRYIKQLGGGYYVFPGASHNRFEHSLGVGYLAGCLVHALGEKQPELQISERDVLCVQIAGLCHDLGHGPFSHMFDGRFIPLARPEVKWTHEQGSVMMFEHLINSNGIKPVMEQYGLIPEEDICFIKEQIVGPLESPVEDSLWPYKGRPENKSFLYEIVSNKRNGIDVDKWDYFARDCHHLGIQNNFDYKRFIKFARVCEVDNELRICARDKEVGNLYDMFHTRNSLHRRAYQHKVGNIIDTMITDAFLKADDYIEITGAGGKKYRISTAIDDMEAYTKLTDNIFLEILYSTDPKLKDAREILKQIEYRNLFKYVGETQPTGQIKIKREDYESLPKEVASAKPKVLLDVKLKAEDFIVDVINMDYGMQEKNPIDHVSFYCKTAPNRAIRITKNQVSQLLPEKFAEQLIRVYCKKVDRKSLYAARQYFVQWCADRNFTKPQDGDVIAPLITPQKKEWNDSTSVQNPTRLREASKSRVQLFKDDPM

[8] = Human immunodeficiency virus 1, THP-1, read-out: EC50 [95% CI], THP1 PMA+
[9] = Human immunodeficiency virus 1, THP-1, read-out: EC50 [95% CI], THP1 PMA−
[10] = Human immunodeficiency virus 1, U-937, read-out: EC50 [95% CI], U937 PMA+
[11] = Human immunodeficiency virus 1, U-937, read-out: EC50 [95% CI], U937 PMA−
[12] = Human immunodeficiency virus 1, U-937, read-out: EC50 [95% CI], U937 PMA+, HD206/7AA+ population
[13] = Human immunodeficiency virus 1, U-937, read-out: EC50 [95% CI], U937 PMA+, SAMHD1+ population
[14] = Human immunodeficiency virus 1, U-937, read-out: EC50 [95% CI], U937 PMA−, HD206/7AA+ population
[15] = Human immunodeficiency virus 1, U-937, read-out: EC50 [95% CI], U937 PMA−, SAMHD1+ population
[16] = Human immunodeficiency virus 1, THP-1, read-out: EC50 [95% CI], THP1 PMA+, Vpx+
[17] = Human immunodeficiency virus 1, THP-1, read-out: EC50 [95% CI], THP1 PMA+, Vpx−
[18] = Human immunodeficiency virus 1, THP-1, read-out: EC50 [95% CI], THP1 PMA−, Vpx+
[19] = Human immunodeficiency virus 1, THP-1, read-out: EC50 [95% CI], THP1 PMA−, Vpx−

SMILES | EC50 (HIV-1-GFP [1]; [8]) [µM] | EC50 (HIV-1-GFP [1]; [9]) [µM] | EC50 (HIV-1-GFP [1]; [10]) [µM] | EC50 (HIV-1-GFP [1]; [11]) [µM] | EC50 (HIV-1-GFP [2]; [12]) [µM] | EC50 (HIV-1-GFP [2]; [13]) [µM] | EC50 (HIV-1-GFP [2]; [14]) [µM] | EC50 (HIV-1-GFP [2]; [15]) [µM] | EC50 (HIV-1-GFP [3]; [16]) [µM] | EC50 (HIV-1-GFP [3]; [17]) [µM] | EC50 (HIV-1-GFP [3]; [18]) [µM] | EC50 (HIV-1-GFP [3]; [19]) [µM] | CC50 at 48 h [4] [µM] | CC50 at 48 h [5] [µM] | CC50 (U937 cells) [µM] | CC50 (THP-1 cells) [µM] | CC50 at 48 h (in vitro) [µM] | other results
O=c1[nH]cnc2c1ncn2[C@H]1CC[C@@H](CO)O1 [ddI, 2′,3′-dideoxyinosine] | 0.093 | 2.03 | 2.45 | 45.8 | 8.79 | 0.109 | 55.1 | 23.7 | 4.34 | 0.079 | 2.73 | 1.04 | > 200 | > 200 | > 200 | > 200 | > 200 | CC50 at 48 h ([6]; CC50): > 200 µM; CC50 at 48 h ([7]; CC50): > 200 µM
Nc1nc(NC2CC2)c2ncn([C@H]3C=C[C@@H](CO)C3)c2n1 [ABC] | 0.031 | 0.493 | 7.47 | 14.1 | 7.06 | 0.173 | 22.1 | 17.5 | 7.05 | 0.038 | 0.622 | 0.459 | > 200 | > 200 | > 200 | > 200 | > 200 | fold increase of anti-HIV-1 activity in PMA+ over PMA− cells (HIV-1-GFP [1]; THP-1): 16 fold; SI, selectivity index CC50/EC50 (HIV-1-GFP [1]; THP-1 PMA+): > 6452; SI, selectivity index CC50/EC50 (HIV-1-GFP [1]; THP-1 PMA−): > 406; SI, selectivity index CC50/EC50 (HIV-1-GFP [1]; U937 PMA+): > 27; SI, selectivity index CC50/EC50 (HIV-1-GFP [1]; U937 PMA−): > 14; Fold (EC50 HD206/7AA vs SAMHD1) (HIV-1-GFP [2]; U937 PMA+): 41 fold; Fold (EC50 HD206/7AA vs SAMHD1) (HIV-1-GFP [2]; U937 PMA−): 1 fold; Fold (EC50 Vpx+ vs Vpx−) (HIV-1-GFP [3]; THP1 PMA+): 187 fold; Fold (EC50 Vpx+ vs Vpx−) (HIV-1-GFP [3]; THP1 PMA−): 1 fold; CC50 at 48 h [6]: > 200 µM; CC50 at 48 h [7]: > 200 µM
Nc1nc2c(ncn2COCCOP(=O)(O)OP(=O)(O)OP(=O)(O)O)c(=O)[nH]1 [ACV-TP, Aciclovir triphosphate] |  |  |  |  |  |  |  |  |  |  |  |  |  |  |  |  |  | allosteric activation of SAMHD1 (SAMHD1): allosteric activator of SAMHD1 with comparable efficiency to GTP; hydrolysis by SAMHD1 (substrate) (SAMHD1): non-hydrolysable
